The values that follow come from patent publication US20180305334A1, “COMPOUNDS, COMPOSITIONS AND METHODS OF USE AGAINST STRESS GRANULES” (Aquinnah Pharmaceuticals, Inc., priority 2015, published 2018).

The subject of one test is TDP-43 inclusions in PC12 cells stably expressing wild type (WT) TDP-43-GFP. In words: Dose response assay for TDP-43 inhibition. It is filed as cell-based. The settings on record: Rattus norvegicus, PC-12, inhibition of TDP-43 inclusions, stressed with 15 μM, 12-point dose response. How it is done:
Exemplary compounds of the invention were evaluated for efficacy in inhibiting TDP-43 inclusions using a dose response assay. Briefly, PC12 cells stably expressing wild type (WT) TDP-43-GFP were stressed with 15 μM to induce TDP-43 inclusions. The cells were then treated with exemplary compounds of the invention and the inhibitory effect on TDP-43 inclusions was observed using fluorescent microscopy. The ratio of cells with TDP-43 inclusions was calculated based on the total number of cells with detectable GFP expression. A 12-point dose response curve was generated, and the IC50 for each compound tested was determined.
The term IC50 denotes the concentration that gives 50% inhibition. Take `CCN(CC1CCCN(CCc2cccc(OC)c2)C1)C(=O)c1cc2ccccc2[nH]1` (stereo not shown) [Compound 101, N-ethyl-N-((1-(3-methoxyphenethyl)piperidin-3-yl)methyl)-1H-indole-2-carboxamide]: the half-maximal inhibitory concentration (IC50) lay in the range of 0.101 to 0.25 µM.

Compound `COc1ccccc1OCC(=O)NC1CCCN(c2nc3ccccc3s2)C1` (stereo not shown) [Compound 102, N-(1-(benzo[d]thiazol-2-yl)piperidin-3-yl)-2-(2-methoxyphenoxy)acetamide] had an IC50 of 0.251 to 0.5 µM.

For the compound `COc1cc(NC(=O)CCC2CCCN(Cc3ccc(F)c(OC)c3)C2)cc(OC)c1` (stereo not shown) [Compound 100, N-(3,5-dimethoxyphenyl)-3-(1-(4-fluoro-3-methoxybenzyl)-piperidin-3-yl)propanamide], the half-maximal inhibitory concentration (IC50) was 0.101 to 0.25 µM.

Another test relates to Embryonic mouse hippocampal neurons transduced with AAV1 EGFP, WT TDP-43 EGFP, A315T TDP-43 EGFP, or Q331K TDP-43 EGFP. In words: Neuroprotection assay. It is filed as cell-based. The settings on record: average rescue total dendrite length; neurons treated DIV7, 9, 11 at 10 times the IC50 value; fixed DIV12. How it is done: CMF dissection buffer: 1× Hank's balanced salt solution (Ca—/Mg, 500 mL) and 10 mM HEPES, pH 7.25-7.3 (1M stock, 5 mL)
Plating media: MEM (Earle salts+/Glutamine, 95 mL), FBS (to 2.5%, 2.5 mL), Pen/Strep (lx, 1 mL), glutamine (lx, 1 mL), and D-glucose (0.6% w/v, 0.6 g)
Feeding media: neurobasal media (96 mL), B27 supplement (2 mL), Pen/Strep (1 mL), and glutamine (1 mL).
Embryonic mouse hippocampal neurons were cultured according to Kaech, S. and Banker, G. (2006) Nat Protoc 1:2406-2415 and dissected at PO from CD1 mice. Once all the hippocampi were removed, they were placed in a 15 mL conical Falcon tube on ice and brought to a final volume of 4.5 mL with CMF dissection buffer. 0.5 mL of a 2.5% trypsin-EDTA solution was then added, and the mixture was incubated at 37° C. for 15 min. The trypsin solution was gently removed, leaving the tissue at the bottom of the Falcon tube. 5 mL CMF dissection buffer was then added, and after gentle mixing, the tissue was allowed to sediment. This procedure was repeated three times. The hippocampi were then dissociated by adding 1.8 mL platting media and repeatedly pipetting in a glass Pasteur pipette; the dissociation process was repeated 5-10 times. The cells were then passed through a 70 um cell strainer into a 50 mL conical tube to remove clumps and debris, and the neurons were plated on glass coverslips coated with poly-D-lysine/laminin. On DIV 1 neurons were transduced with AAV1 EGFP, WT TDP-43 EGFP, A315T TDP-43 EGFP, or Q331K TDP-43 EGFP. […] Neurons were traced and analyzed using NeuronJ.
Results of the neuroprotection assay for exemplary compounds of the invention are summarized in Table 2, wherein A represents an average rescue total dendrite length of >150%; B represents an average rescue total dendrite length of 100-149%; C represents an average rescue total dendrite length of 50-99%; D represents an average rescue total dendrite length of 0-49%; E represents an average rescue total dendrite length of <0%; and ND signifies that the average rescue total dendrite length was not determined.
As to `CCN(CC1CCCN(CCc2cccc(OC)c2)C1)C(=O)c1cc2ccccc2[nH]1` (stereo not shown) [Compound 101, N-ethyl-N-((1-(3-methoxyphenethyl)piperidin-3-yl)methyl)-1H-indole-2-carboxamide], the “Average Additive Dendrite Length (%)” value is “C (C represents an average rescue total dendrite length of 50-99%)”.

Consider `COc1ccccc1OCC(=O)NC1CCCN(c2nc3ccccc3s2)C1` (stereo not shown) [Compound 102, N-(1-(benzo[d]thiazol-2-yl)piperidin-3-yl)-2-(2-methoxyphenoxy)acetamide], for which the “Average Additive Dendrite Length (%)” value is reported as “B (B represents an average rescue total dendrite length of 100-149%)”.

With `COc1cc(NC(=O)CCC2CCCN(Cc3ccc(F)c(OC)c3)C2)cc(OC)c1` (stereo not shown) [Compound 100, N-(3,5-dimethoxyphenyl)-3-(1-(4-fluoro-3-methoxybenzyl)-piperidin-3-yl)propanamide], the “Average Additive Dendrite Length (%)” value is “E (E represents an average rescue total dendrite length of <0%)”.

In another test the test system is TDP-43 aggregation in PC12 cells stably expressing TDP-43^Q331K::eGFP. In words: In vitro efficacy assay, TDP-43 aggregation concentration-response. It is filed as cell-based. The settings on record: Rattus norvegicus, PC-12, inhibition of TDP-43 aggregation; PC12 TDP-43^Q331K::eGFP, 1 hour pre-treatment, 15 μM sodium arsenite for 23 hours; 10-point dose response. In a few lines: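 PC12 cells stably expressing TDP-43^Q331K::eGFP pre-treated with compound for 1 h, then stressed with 15 μM sodium arsenite for 23 h. Fluorescence microscopy scored the fraction of GFP-positive cells carrying TDP-43 aggregates across compound concentrations.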
As for `CCN(CC1CCCN(CCc2cccc(OC)c2)C1)C(=O)c1cc2ccccc2[nH]1` (stereo not shown) [Compound 101, N-ethyl-N-((1-(3-methoxyphenethyl)piperidin-3-yl)methyl)-1H-indole-2-carboxamide], the IC50 was less than 1.5 µM.

Turning to `CCN(CC1CCCN(CCc2cc3ccccc3o2)C1)C(=O)c1cc2ccccc2[nH]1` (stereo not shown) [Compound 181], the half-maximal inhibitory concentration (IC50) was 7 to 9.9 µM.

For `COc1ccc(CC(=O)N2CCC(CNC(=O)c3cc4ccccc4[nH]3)CC2)cc1` [Compound 323], the half-maximal inhibitory concentration (IC50) is less than 1.5 µM.

Consider `CCN(CC1CCCN(Cc2ccccc2)C1)C(=O)c1cc2ccccc2[nH]1` (stereo not shown) [Compound 132], for which the IC50 fell in the range of 1.5 to 4 µM.

Regarding `CC(C)N(CC1CCN(Cc2ccccc2Cl)CC1)C(=O)c1cc2ccccc2[nH]1` [compound 281], the IC50 is greater than 10 µM.

With `CN(CC1CCNCC1)C(=O)c1cc2ccccc2[nH]1` [compound 254], the IC50 was greater than 10 µM.

In the case of `CCN(CC1CCN(C2CCc3ccccc32)CC1)C(=O)c1cc2ccccc2[nH]1` (stereo not shown) [Compound 328], the IC50 was in the range of 4 to 7 µM.

Consider `O=C(NCC1CCN(Cc2ccccc2F)CC1)c1cc2ccccc2[nH]1` [compound 272], for which the IC50 is greater than 10 µM.

With `CCN(CC1CCCN(Cc2ccc(F)cc2)C1)C(=O)c1cc2ccccc2[nH]1` (stereo not shown) [Compound 135], the IC50 is less than 1.5 µM.

For the compound `CN(CC1CCN(Cc2ccc(Cl)cc2)CC1)C(=O)c1cc2ccccc2[nH]1` [compound 262], the concentration for half-maximal inhibition (IC50) was greater than 10 µM.

In the case of `COc1ccccc1CN1CCC(CN(C(=O)c2cc3ccccc3[nH]2)C(C)C)CC1` [compound 282], the IC50 was greater than 10 µM.

As to `CC(C)N(CC1CCN(Cc2cccc(Cl)c2)CC1)C(=O)c1cc2ccccc2[nH]1` [compound 278], the IC50 was 4 to 7 µM.

Consider `CCN(CC1CCCN(Cc2ccc(OC)cc2)C1)C(=O)c1cc2c(Cl)cc(Cl)cc2[nH]1` (stereo not shown) [Compound 154], for which the IC50 was 1.5 to 4 µM.

As for `CCN(CC1CCCN(C(C)(C)c2ccc(OC)cc2)C1)C(=O)c1cc2ccccc2[nH]1` (stereo not shown) [Compound 355], the IC50 was less than 1.5 µM.

`CCN(CC1CCNCC1)C(=O)c1cc2ccccc2[nH]1` [Compound 250]: the IC50 is less than 1.5 µM.

Turning to `CCN(CC1CCCN(C2Cc3ccccc3C2)C1)C(=O)c1cc2ccccc2[nH]1` (stereo not shown) [Compound 209], the IC50 lay within 4 to 7 µM.

On to `COc1ccc(C(=O)N2CCC(CNC(=O)c3cc4ccccc4[nH]3)CC2)cc1` [Compound 321], for which the IC50 was less than 1.5 µM.

With `COc1cccc(CCNCCNC(=O)c2cc3ccccc3[nH]2)c1` [Compound 221], the IC50 lay in the range of 1.5 to 4 µM.

As for `O=C(c1cc2ccccc2[nH]1)N(CC1CCN(CCc2ccccc2)CC1)CC(F)(F)F` [compound 305], the IC50 is less than 1.5 µM.

Take `CCN(CC1CCCNC1)C(=O)c1cc2c(F)cccc2[nH]1` (stereo not shown) [compound 421]: the IC50 lay in the range of 4 to 7 µM.

For the compound `CCN(CC1CCNCC1)C(=O)c1cc2cc(OC(F)F)ccc2[nH]1` [compound 402], the IC50 was greater than 10 µM.

In the case of `CCN(CC1CCCN(Cc2ccc(Cl)cc2)C1)C(=O)c1cc2c(F)cccc2[nH]1` (stereo not shown) [Compound 165], the IC50 is 1.5 to 4 µM.
